The values that follow come from ChEMBL document CHEMBL5532726, “Somatostatin Receptor Subtype 4 Agonists for Potential Treatment of Alzheimer's Disease and Other Central Nervous System Disorders” (ACS Med Chem Lett, 2024).

For the test, the target named is Somatostatin receptor type 1 (Homo sapiens, UniProt P30872).
Sequence of Somatostatin receptor type 1 (P30872 whole entry): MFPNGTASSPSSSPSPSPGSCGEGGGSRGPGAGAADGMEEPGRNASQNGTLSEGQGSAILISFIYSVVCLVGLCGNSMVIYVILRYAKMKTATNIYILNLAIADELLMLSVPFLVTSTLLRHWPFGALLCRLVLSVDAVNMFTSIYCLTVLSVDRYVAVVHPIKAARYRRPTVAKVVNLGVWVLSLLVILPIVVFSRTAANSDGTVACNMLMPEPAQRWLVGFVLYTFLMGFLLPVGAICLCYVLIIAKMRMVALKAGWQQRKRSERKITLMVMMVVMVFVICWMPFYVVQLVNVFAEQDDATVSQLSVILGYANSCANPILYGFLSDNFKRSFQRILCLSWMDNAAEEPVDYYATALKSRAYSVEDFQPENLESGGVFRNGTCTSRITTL

On to `CC(Oc1ccccc1C1CC1)C(=O)N[C@H]1CCNC[C@@H]1F` (stereo partly specified), for which the concentration for half-maximal inhibition (IC50) was over 50.1 µM.

In general, IC50 refers to the concentration that gives 50% inhibition.
